Assay results taken from US20020082254A1, “Compounds for treating disorders where a decreased level of plasma FFA is desired” (priority 2000, published 2002).

Biological target: T1, Lipoprotein lipase (LPL) (Bos taurus, UniProt P11151)
T1 construct: Dr. Gunilla Olivecrona, Umea University (gift)
T1 sequence (P11151 29-478): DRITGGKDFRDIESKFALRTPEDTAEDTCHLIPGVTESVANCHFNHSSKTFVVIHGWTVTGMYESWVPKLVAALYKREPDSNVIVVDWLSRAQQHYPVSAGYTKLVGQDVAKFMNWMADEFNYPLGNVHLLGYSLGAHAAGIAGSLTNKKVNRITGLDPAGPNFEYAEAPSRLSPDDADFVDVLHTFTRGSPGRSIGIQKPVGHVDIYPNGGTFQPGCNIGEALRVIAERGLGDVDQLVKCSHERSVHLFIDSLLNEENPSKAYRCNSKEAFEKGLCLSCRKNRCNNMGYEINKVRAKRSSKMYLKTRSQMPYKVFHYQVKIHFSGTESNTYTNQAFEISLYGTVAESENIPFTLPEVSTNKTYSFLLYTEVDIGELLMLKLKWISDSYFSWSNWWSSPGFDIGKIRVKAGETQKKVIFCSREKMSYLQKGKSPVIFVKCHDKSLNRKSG
Assay: Lipoprotein lipase (LPL) inhibition assay, 3H-triolein/intralipid substrate
Format: biochemical
Conditions: read-out: LPL inhibition (% inh. at 50 μM)
Text: Lipoprotein Lipase (LPL) [Classified as EC 3.1.1.34 in accordance with the Recommendations of the Nomenclature Committee of the International Union of Biochemistry and Molecular Biology (available on the World Wide Web at the following address: http://www.chem.qmw.ac.uk/iubmb/enzyme/)]
Materials. The lipoprotein lipase employed was obtained from Dr. Gunilla Olivecrona of Umea University, Sweden. ^3H-triolein (TO) from Amersham, Buckinghamshire, U.K., cat No. TRA191; 5-20 Ci/mmol dissolved in toluene. Intralipid is from Kabi-Fresenius). Apo CII was obtained from PMSF-treated plasma from overnight fasted rats. All other reagents are of commercial grade and obtained from various commercial sources.
Methods. The preparation of the substrate is as follows:
25 μl of ^3H-Triolein evaporated under a gentle stream of N2 in a 27° C. room in 4 ml chromacol glass followed by the addition of 1 ml 10% intralipid. This is mixed and sonicated on ice for 5 minutes (50% pulse mode). This can be kept for 1 week at 4° C.
100 μl assay medium (0.3M Tris-Cl, 0.2M NaCl, 0.2 mg heparin/ml and 120 mg BSA/ml (fraction V, Sigma no. 3401, pH 8.5))
All mixed in a 13×100 mm glass tube and incubated for at least 5 minutes.
2. Add 5 μl LPL (of a solution containing 500 mU/mg)
Mix and incubate for 30 minutes at 25° C.
3. The reaction is stopped with 3.25 ml of a solution containing Methanol:chloroform:heptan 10:9:7. Add 1.05 ml buffer (100 mM Boric acid, 100 mM potassium carbonate pH 10.5) and mix 10 seconds per vial.
5. Take 1 ml of the upper phase+10 ml scintillation fluid and mix
6. Scintillation count for 5 minutes per vial.

First: O=C(NN1CCc2ccccc2C1)Oc1ccc(Cl)cc1 [Example 6, (3,4-Dihydro-1H-isoquinolin-2-yl)-carbamic acid 4-chloro-phenyl Ester]
Second: CC1Cc2ccccc2CN1NC(=O)Oc1ccc(Cl)cc1 (stereo not drawn) [Example 23, (3-Methyl-3,4-dihydro-1H-isoquinolin-2-yl)-carbamic Acid 4-chloro-phenyl Ester]
The inhibition at 50 µM of the first is lower: 0% for the first, 4% for the second.

For `CC(C)(C)OC(=O)Nc1ccc(OC(=O)NN2CCc3ccccc3C2)cc1` [Example 17, (3,4-Dihydro-1H-isoquinolin-2-yl)-carbamic Acid 4-tert-butoxycarbonylamino-phenyl Ester], the inhibition at 50 µM was 0%.
